Laboratory results: patent US20060069132A1, “Azolecarboxamide herbicides” (priority 2004, published 2006)

What was measured:
blackgrass = assay: Test B postemergence herbicide test; type: in vivo, Alopecurus myosuroides
Procedure, shortened: (§1)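 Greenhouse test; postemergence application to plants at 1–4 leaves (2–18 cm); paddy species at 2 leaves; evaluated visually vs controls at 13–15 days; scale 0–100 (100 = complete control).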

pigweed = assay: Test B pre-/postemergence herbicide test; type: in vivo, Amaranthus retroflexus
Procedure, shortened: (§2)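 Flooded paddy rice and barnyardgrass were treated at the 2-leaf stage; upland plantings received compound either on sown seed or on 1- to 4-leaf seedlings. All were kept 13–15 days in a greenhouse and scored visually, 0–100, relative to untreated plants.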

giant foxtail = assay: Test B pre-/postemergence herbicide test; type: in vivo, Setaria faberi
Procedure, shortened: as §2

morningglory = assay: Test B pre-/postemergence herbicide test; type: in vivo, Ipomoea coccinea
Procedure, shortened: (§3)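 Greenhouse pot assay with simultaneous preemergence (treated seed) and postemergence (2–18 cm seedlings) applications of surfactant-containing, non-phytotoxic solvent formulations. Response scored visually 13–15 days later on a 0–100 scale, 100 meaning complete control.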

ducksalad = assay: Test B flooded paddy test; type: in vivo, Heteranthera limosa; conditions: 1000 g ai/ha, scale 0 to 100 (0 no effect, 100 complete control)
Procedure, shortened: as §1

[1] = system: small flower umbrella sedge; assay: Test B flooded paddy test; type: in vivo, Cyperus difformis; conditions: 1000 g ai/ha, scale 0 to 100 (0 no effect, 100 complete control)
Procedure, shortened: as §1

rice = assay: Test B flooded paddy test; type: in vivo, Oryza sativa; conditions: 1000 g ai/ha, scale 0 to 100 (0 no effect, 100 complete control)
Procedure, shortened: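 After treating 2-leaf paddy plants or 2–18 cm postemergence plants (1 to 4 leaves) with formulated chemical, researchers kept them in a greenhouse for 13–15 days. Effects were judged visually versus controls: 0 indicates none, 100 total control.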

corn = assay: Test B pre-/postemergence herbicide test; type: in vivo, Zea mays
Procedure, shortened: as §2

barnyardgrass [2] = assay: Test B flooded paddy test; type: in vivo, Echinochloa crus-galli; conditions: 1000 g ai/ha, scale 0 to 100 (0 no effect, 100 complete control)
Procedure, shortened: as §1

barnyardgrass [3] = assay: Test B pre-/postemergence herbicide test; type: in vivo, Echinochloa crus-galli
Procedure, shortened: as §3

cocklebur = assay: Test B pre-/postemergence herbicide test; type: in vivo, Xanthium strumarium
Procedure, shortened: as §3

velvetleaf = assay: Test B pre-/postemergence herbicide test; type: in vivo, Abutilon theophrasti
Procedure, shortened: as §2

wild oat = assay: Test B postemergence herbicide test; type: in vivo, Avena fatua
Procedure, shortened: (§4)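 Scale 0–100: zero equals no visible effect, 100 complete control, judged by eye relative to controls. Timing: 13 to 15 days in greenhouse post-treatment. Growth stage at spraying: two leaves (paddy) or one to four leaves, 2–18 cm (postemergence).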

lambsquarters = assay: Test B pre-/postemergence herbicide test; type: in vivo, Chenopodium album
Procedure, shortened: as §2

wheat = assay: Test B postemergence herbicide test; type: in vivo, Triticum aestivum; parameters: key to Wheat plant response rating: 0 = no effect, 100 = complete control
Procedure, shortened: as §4

[4] = postemergence, 125 g ai/ha, visual rating, scale 0 (no effect) to 100 (complete control)
[5] = postemergence, 500 g ai/ha, visual rating, scale 0 (no effect) to 100 (complete control)
[6] = 125 g ai/ha, 0 = no effect, 100 = complete control, preemergence
[7] = 500 g ai/ha, visual rating, 0 = no effect, 100 = complete control, preemergence
[8] = postemergence, 500 g ai/ha, scale 0 to 100, 0 is no effect, 100 is complete control
[9] = Postemergence, 125 g ai/ha, scale 0 (no effect) to 100 (complete control)
[10] = Postemergence, 500 g ai/ha, visual rating after 13 to 15 days, scale 0 (no effect) to 100 (complete control)
[11] = Preemergence, 500 g ai/ha, scale 0 to 100
[12] = preemergence, 125 g ai/ha, 0 to 100 scale, 0 is no effect, 100 is complete control
[13] = 125 g ai/ha, visual rating, scale 0 (no effect) to 100 (complete control), postemergence
[14] = 125 g ai/ha, 0 is no effect, 100 is complete control, preemergence
[15] = Postemergence, 500 g ai/ha, scale 0 (no effect) to 100 (complete control)

CCn1nc(C(C)(C)C)cc1C(=O)Nc1cc(C(=O)N(C)OC)ccc1F [Compound 244]
Blackgrass plant response rating (blackgrass; [4]): 10 | Blackgrass plant response rating (blackgrass; [5]): 20 | Pigweed plant response rating (0 to 100 scale) (pigweed; [6]): 90 | Plant response rating, Pigweed (pigweed; [7]): 100 | Pigweed plant response rating (pigweed; [4]): 50 | Pigweed plant response rating (pigweed; [8]): 70 | Foxtail, Giant plant response rating (0 to 100 scale) (giant foxtail; [6]): 80 | Plant response rating, Foxtail, Giant (giant foxtail; [7]): 90 | Foxtail, Giant plant response rating (giant foxtail; [4]): 20 | Foxtail, Giant plant response rating (giant foxtail; [8]): 30 | Morningglory plant response rating (0 to 100 scale) (morningglory; [6]): 0 | Plant response rating, Morningglory (morningglory; [7]): 20 | Morningglory plant response rating (morningglory; [4]): 10 | Morningglory plant response rating (morningglory; [8]): 20 | Ducksalad plant response rating (ducksalad): 90 | Sedge, Umbrella plant response rating [1]: 80 | Rice plant response rating (rice): 90 | Corn plant response rating (0 to 100 scale) (corn; [6]): 30 | Plant response rating, Corn (corn; [7]): 60 | Corn plant response rating (corn; [4]): 10 | Corn plant response rating (corn; [8]): 30 | Barnyardgrass plant response rating (barnyardgrass [2]): 90 | Barnyardgrass plant response rating (0 to 100 scale) (barnyardgrass [3]; [6]): 80 | Plant response rating, Barnyardgrass (barnyardgrass [3]; [7]): 90 | Barnyardgrass plant response rating (barnyardgrass [3]; [4]): 10 | Barnyardgrass plant response rating (barnyardgrass [3]; [5]): 50 | Cocklebur plant response rating (0 to 100 scale) (cocklebur; [6]): 0 | Plant response rating, Cocklebur (cocklebur; [7]): 20 | Cocklebur plant response rating (cocklebur; [4]): 30 | Cocklebur plant response rating (cocklebur; [5]): 80 | Velvetleaf plant response rating (0 to 100 scale) (velvetleaf; [6]): 70 | Plant response rating, Velvetleaf (velvetleaf; [7]): 100 | Velvetleaf plant response rating (velvetleaf; [4]): 40 | Velvetleaf plant response rating (velvetleaf; [8]): 60 | Oat, Wild plant response rating (wild oat; [4]): 30 | Oat, Wild plant response rating (wild oat; [8]): 50 | Lambsquarters plant response rating (0 to 100 scale) (lambsquarters; [6]): 90 | Plant response rating, Lambsquarters (lambsquarters; [7]): 100 | Lambsquarters plant response rating (lambsquarters; [4]): 40 | Lambsquarters plant response rating (lambsquarters; [8]): 70 | Wheat plant response rating (wheat; [4]): 10 | Wheat plant response rating (wheat; [8]): 20

CCNC(=O)c1cccc(NC(=O)c2cc(C(C)(C)C)nn2CC(F)(F)F)c1 [Compound 31]
Blackgrass plant response rating (blackgrass; [9]): 0 | Plant response rating, Blackgrass (blackgrass; [10]): 50 | Plant response rating, Pigweed (pigweed; [10]): 90 | Pigweed plant response rating (pigweed; [11]): 100 | Plant response rating, Pigweed (pigweed; [12]): 70 | Foxtail, Giant plant response rating (giant foxtail; [9]): 20 | Plant response rating, Foxtail, Giant (giant foxtail; [10]): 30 | Foxtail, Giant plant response rating (giant foxtail; [11]): 90 | Plant response rating, Foxtail, Giant (giant foxtail; [12]): 60 | Morningglory plant response rating (morningglory; [9]): 30 | Plant response rating, Morningglory (morningglory; [10]): 70 | Morningglory plant response rating (morningglory; [11]): 80 | Ducksalad plant response rating (ducksalad; visual rating, 13 to 15 days): 80 | Sedge, Umbrella plant response rating ([1]; visual rating, 13 to 15 days): 50 | Rice plant response rating (rice; visual rating, 13 to 15 days): 80 | Corn plant response rating (corn; [9]): 30 | Plant response rating, Corn (corn; [10]): 30 | Corn plant response rating (corn; [11]): 20 | Barnyardgrass plant response rating (barnyardgrass [2]; visual rating, 13 to 15 days): 80 | Barnyardgrass plant response rating (barnyardgrass [3]; [9]): 10 | Plant response rating, Barnyardgrass (barnyardgrass [3]; [10]): 50 | Barnyardgrass plant response rating (barnyardgrass [3]; [11]): 90 | Cocklebur plant response rating (cocklebur; [9]): 80 | Plant response rating, Cocklebur (cocklebur; [10]): 90 | Cocklebur plant response rating (cocklebur; [11]): 40 | Plant response rating, Velvetleaf (velvetleaf; [10]): 50 | Velvetleaf plant response rating (velvetleaf; [11]): 90 | Plant response rating, Velvetleaf (velvetleaf; [12]): 80 | Oat, Wild plant response rating (wild oat; [9]): 20 | Plant response rating, Oat, Wild (wild oat; [10]): 30 | Lambsquarters plant response rating (lambsquarters; [9]): 90 | Plant response rating, Lambsquarters (lambsquarters; [10]): 90 | Lambsquarters plant response rating (lambsquarters; [11]): 100 | Plant response rating, Lambsquarters (lambsquarters; [12]): 90 | Plant response rating, Wheat (wheat; [10]): 10

C=CCNC(=O)c1cccc(NC(=O)c2nn(C(C)C)nc2CC)c1 [Compound 382]
Blackgrass plant response rating (blackgrass; [13]): 10 | Blackgrass plant response rating (blackgrass; [8]): 30 | Plant response rating (0 to 100 scale), Pigweed (pigweed; [14]): 50 | Pigweed plant response rating (pigweed; [13]): 30 | Pigweed plant response rating (pigweed; [15]): 40 | Plant response rating (0 to 100 scale), Foxtail, Giant (giant foxtail; [14]): 80 | Foxtail, Giant plant response rating (giant foxtail; [13]): 0 | Foxtail, Giant plant response rating (giant foxtail; [8]): 10 | Plant response rating (0 to 100 scale), Morningglory (morningglory; [14]): 10 | Morningglory plant response rating (morningglory; [13]): 20 | Morningglory plant response rating (morningglory; [15]): 60 | Ducksalad plant response rating (ducksalad): 80 | Sedge, Umbrella plant response rating [1]: 70 | Rice plant response rating (rice): 80 | Plant response rating (0 to 100 scale), Corn (corn; [14]): 0 | Corn plant response rating (corn; [13]): 0 | Corn plant response rating (corn; [8]): 0 | Barnyardgrass plant response rating (barnyardgrass [2]): 80 | Plant response rating (0 to 100 scale), Barnyardgrass (barnyardgrass [3]; [14]): 80 | Barnyardgrass plant response rating (barnyardgrass [3]; [13]): 0 | Barnyardgrass plant response rating (barnyardgrass [3]; [8]): 0 | Plant response rating (0 to 100 scale), Cocklebur (cocklebur; [14]): 0 | Cocklebur plant response rating (cocklebur; [13]): 10 | Cocklebur plant response rating (cocklebur; [8]): 10 | Plant response rating (0 to 100 scale), Velvetleaf (velvetleaf; [14]): 10 | Velvetleaf plant response rating (velvetleaf; [13]): 10 | Velvetleaf plant response rating (velvetleaf; [15]): 20 | Oat, Wild plant response rating (wild oat; [13]): 10 | Oat, Wild plant response rating (wild oat; [15]): 20 | Plant response rating (0 to 100 scale), Lambsquarters (lambsquarters; [14]): 100 | Lambsquarters plant response rating (lambsquarters; [13]): 50 | Lambsquarters plant response rating (lambsquarters; [15]): 70 | Wheat plant response rating (wheat; [13]): 0 | Wheat plant response rating (wheat; 500 g ai/ha, scale 0 to 100, 0 no effect, 100 complete control, preemergence): 80 | Wheat plant response rating (wheat; [15]): 10
